ChEMBL document CHEMBL6083202, “The isolation of sclerotinin A as an anti-malarial compound by utilization of a global secondary metabolism regulator, laeA gene” (Bioorg Med Chem Lett, 2024)
Converted amounts (≈) assume the structure as drawn. The source made the active and inactive calls. The rule behind the calls is not given here.

Experiments:
[1] = Cytotoxicity against human HepG2 cells; format: toxicity, cell-based
Plasmodium falciparum [2] = assay: Antimalarial activity against chloroquine-resistant Plasmodium falciparum K1; format: functional, organism-based
[3] = Selectivity index, ratio of IC50 for human MRC5 cells to IC50 for chloroquine-resistant Plasmodium falciparum K1; format: toxicity, cell-based; settings: read-out: Ratio IC50
[4] = Selectivity index, ratio of IC50 for human HepG2 cells to IC50 for chloroquine-sensitive Plasmodium falciparum FCR3; format: toxicity, cell-based; settings: read-out: Ratio IC50
[5] = Selectivity index, ratio of IC50 for human HepG2 cells to IC50 for chloroquine-resistant Plasmodium falciparum K1; format: toxicity, cell-based; settings: read-out: Ratio IC50
[6] = Cytotoxicity against human MRC5 cells; format: toxicity, cell-based
[7] = Selectivity index, ratio of IC50 for human A549 cells to IC50 for chloroquine-sensitive Plasmodium falciparum FCR3; format: toxicity, cell-based; settings: read-out: Ratio IC50
[8] = Selectivity index, ratio of IC50 for human HeLa cells to IC50 for chloroquine-sensitive Plasmodium falciparum FCR3; format: toxicity, cell-based; settings: read-out: Ratio IC50
Plasmodium falciparum [9] = assay: Antimalarial activity against chloroquine-sensitive Plasmodium falciparum FCR3; format: functional, organism-based
Saccharomyces cerevisiae = assay: Antifungal activity against multidrug sensitive Saccharomyces cerevisiae 12gene mutant 0HSR-iERG6 at 10 ug; format: functional, organism-based; settings: dose 10.0 µg
[10] = Selectivity index, ratio of IC50 for human A549 cells to IC50 for chloroquine-resistant Plasmodium falciparum K1; format: toxicity, cell-based; settings: read-out: Ratio IC50
[11] = Cytotoxicity against human A549 cells; format: toxicity, cell-based
[12] = Cytotoxicity against human HeLa cells; format: toxicity, cell-based
[13] = Selectivity index, ratio of IC50 for human HeLa cells to IC50 for chloroquine-resistant Plasmodium falciparum K1; format: toxicity, cell-based; settings: read-out: Ratio IC50
[14] = Selectivity index, ratio of IC50 for human MRC5 cells to IC50 for chloroquine-sensitive Plasmodium falciparum FCR3; format: toxicity, cell-based; settings: read-out: Ratio IC50

## Cc1c(O)c(C)c2c(c1O)C(=O)OC(C)(O)[C@H]2C (stereo not given in full)
[1]
  IC50: 3.91 µg/mL (≈ 15.5 µM)
Plasmodium falciparum [2]
  IC50: 0.87 µg/mL (≈ 3.45 µM)
[3]
  selectivity ratio: 1.4
[4]
  selectivity ratio: 6.31
[5]
  selectivity ratio: 4.49
[6]
  IC50: 1.2 µg/mL (≈ 4.76 µM)
[7]
  selectivity ratio: 25.6
[8]
  selectivity ratio: 15.9
Plasmodium falciparum [9]
  IC50: 0.62 µg/mL (≈ 2.46 µM)
Saccharomyces cerevisiae
  Activity: inactive
[10]
  selectivity ratio: 18.3
[11]
  IC50: 15.9 µg/mL (≈ 63 µM)
[12]
  IC50: 9.88 µg/mL (≈ 39.2 µM)
[13]
  selectivity ratio: 11.4
[14]
  selectivity ratio: 2
